The results in this text go back to US20080171780A1, “Process for Crystallization of Ramipril and Preparation of a Hydrated Form Thereof” (LUPIN LIMITED, priority 2004, published 2008).

Where only a bound is given, the exact number is not on record here.

Common to all, as to format: physicochemical
Data set [1] can be described thus: Bulk density (B.D.) of crystalline material. An excerpt:
The bulk density is an economically, commercially, and functionally important property. […] Moreover, when shipping powders over long distances a high bulk density results in reducing the shipping volume. A high bulk density compound also saves packing material and storage capacity.

Data set [2] can be described thus: Tapped density (T.D.) of crystalline material.
A short description of data set [3]: Stability study at 40° C./75% RH, assay by HPLC. To be noted: crystallized by Diethoxymethane.
Data set [4] is described as follows: In vitro drug release (dissolution) profile, USP apparatus 1, 0.1 N HCl. The conditions noted are these: 50 RPM, solid composition with pregelatinized starch. The method, then: Optically pure Ramipril(I) obtained from example 1 is formulated as a solid pharmaceutical composition by conventional way of direct mixing process with excipients such as pregelatinized starch.
Ramipril(I) monohydrate obtained from example 5 is formulated as a solid pharmaceutical composition by conventional way of direct mixing process with excipients such as pregelatinized starch.
The in vitro drug release profile was carried out using USP apparatus 1,500 ml of 0.1 N HCl at 50 RPM. Following table provides a comparison of dissolution profile of Ramipril(I) crystallized from diethoxymethane as well as the Ramipril(I) monohydrate and prior art method.

The nature of data set [5]: Thermal stability of the hydrate form. The conditions noted are these: converts to anhydrous form on heating above 40° C. The method, then: The novel hydrate of Ramipril(I) occurs in crystalline form. It is readily converted to the anhydrous moiety by heating at a temperature in the range from 40° C. to 42° C. under reduced pressure of 2 to 5 mm hg. The novel hydrate form is stable up to a temperature of 25° C. The monohydrate is transformed into anhydrous Ramipril(I), the so-called “anhydrate” on heating above 40° C. with a speed depending on the conditions of dehydration.

Setting [6] is: Present invention, solvent 2,2-Dimethoxy-propane.
[7] abbreviates: Present invention, solvent Diethoxymethane.
[8] abbreviates: Present invention, solvent Methyl formate.
Setting [9] is: Present invention, solvent Nitromethane.
[10] abbreviates: Prior art method, solvent Ethanol-diethyl ether.
The mark [11] stands for this setting: Prior art method, solvent Ethanol-diisopropyl ether.

Regarding `CCOC(=O)[C@H](CCc1ccccc1)N[C@@H](C)C(=O)N1[C@H](C(=O)O)C[C@@H]2CCC[C@@H]21` [Ramipril(I), (2S,3aS,6aS)-1-[(S)-2-[[(S)-1-(ethoxycarbonyl)-3-phenylpropyl]-amino]propanoyl]octahydrocyclopenta[b]pyrrole-2-carboxylic acid], the B.D. was 0.1 to 0.13 g/mL in data set [1] (setting [6]); 0.22 to 0.24 g/mL in data set [1] (setting [7]); 0.11 to 0.13 g/mL in data set [1] (setting [8]); 0.12 to 0.14 g/mL in data set [1] (setting [9]); 0.09 to 0.12 g/mL in data set [1] (setting [10]); 0.08 to 0.1 g/mL in data set [1] (setting [11]). For the same molecule, the T.D. is 0.14 to 0.18 g/mL in data set [2] (setting [6]); 0.32 to 0.37 g/mL in data set [2] (setting [7]); 0.15 to 0.17 g/mL in data set [2] (setting [8]); 0.15 to 0.17 g/mL in data set [2] (setting [9]); 0.15 to 0.17 g/mL in data set [2] (setting [10]); 0.13 to 0.15 g/mL in data set [2] (setting [11]). Moreover, the “Assay by HPLC(%)” value in data set [3] (40° C. ± 2° C./75% ± 5% RH, 1 Month) was 99.5%; in data set [3] (40° C. ± 2° C./75% ± 5% RH, 2 Month), 99.2%; in data set [3] (40° C. ± 2° C./75% ± 5% RH, 3 Month), 99.12%; in data set [3] (Initial), 99.68%.
`CCOC(=O)[C@H](CCc1ccccc1)N[C@@H](C)C(=O)N1[C@H](C(=O)O)C[C@@H]2CCC[C@@H]21` [Prior art Method]: the “% Drug release of the Label claim” value is recorded as 18.8% in data set [4] (5 Min.) and 75% in data set [4] (10 Min.).
For `CCOC(=O)[C@H](CCc1ccccc1)N[C@@H](C)C(=O)N1[C@H](C(=O)O)C[C@@H]2CCC[C@@H]21` [Crystallised from Diethoxymethane, (2S,3aS,6aS)-1-[(S)-2-[[(S)-1-(ethoxycarbonyl)-3-phenylpropyl]-amino]propanoyl]octahydrocyclopenta[b]pyrrole-2-carboxylic acid], in that order: 48.4% and 93.8%.
Take `CCOC(=O)[C@H](CCc1ccccc1)N[C@@H](C)C(=O)N1[C@H](C(=O)O)C[C@@H]2CCC[C@@H]21.O` [Monohydrate Ramipril(I)]: the “% Drug release of the Label claim” value in data set [4] (5 Min.) stood at 40.8%; in data set [4] (10 Min.), 87%. In addition, in data set [5], the “temperature up to which the form is stable” value was ≤ 25 °C.
In turn, `CCOC(=O)[C@H](CCc1ccccc1)N[C@@H](C)C(=O)N1[C@H](C(=O)O)C[C@@H]2CCC[C@@H]21` [anhydrous Ramipril(I)] yielded a bulk density in data set [1] of 0.3 to 0.35 g/mL.
